# Test results as given in PubChem BioAssay AID588574 (Sanford-Burnham Center for Chemical Genomics, 2011).
# Active and inactive are the calls of the source. How the calls were made is not given here.
# Target: Caspase-3 (Homo sapiens) + Caspase-9 (Homo sapiens) (UniProt P42574+P55211)
# Test: caspase-9/caspase-3 cascade inhibitors, dose response, selectivity assay, biochemical, fluorescence, uHTS hits (AID 588574)
# Settings: LZ-caspase-9/caspase-3 coupled fluorogenic substrate
# Caspase-3 (Homo sapiens) + Caspase-9 (Homo sapiens), sequence (P42574 whole entry, looked up): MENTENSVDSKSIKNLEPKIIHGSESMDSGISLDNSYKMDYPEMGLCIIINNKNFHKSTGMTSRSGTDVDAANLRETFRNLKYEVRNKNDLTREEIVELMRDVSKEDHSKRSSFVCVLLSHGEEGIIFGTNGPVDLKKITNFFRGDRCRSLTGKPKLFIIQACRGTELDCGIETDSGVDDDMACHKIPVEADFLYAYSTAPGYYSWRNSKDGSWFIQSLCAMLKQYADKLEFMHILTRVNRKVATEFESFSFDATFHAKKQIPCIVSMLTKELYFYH
# Caspase-3 (Homo sapiens) + Caspase-9 (Homo sapiens), sequence (P55211 whole entry, looked up): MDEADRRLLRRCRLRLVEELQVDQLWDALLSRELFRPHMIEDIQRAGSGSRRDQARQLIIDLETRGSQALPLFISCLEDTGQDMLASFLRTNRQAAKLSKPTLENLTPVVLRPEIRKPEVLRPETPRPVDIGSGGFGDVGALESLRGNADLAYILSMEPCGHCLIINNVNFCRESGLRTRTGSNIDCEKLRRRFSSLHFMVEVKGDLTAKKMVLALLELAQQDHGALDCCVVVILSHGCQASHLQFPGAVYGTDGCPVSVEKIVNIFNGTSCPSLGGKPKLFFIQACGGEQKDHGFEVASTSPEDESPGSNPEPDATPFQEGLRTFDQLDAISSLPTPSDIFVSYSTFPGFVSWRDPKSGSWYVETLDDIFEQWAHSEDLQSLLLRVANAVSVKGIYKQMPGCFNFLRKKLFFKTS
row,SMILES,IC50
1,CCCCCCc1cc2cc(-c3nnc(-c4ccccc4OC)o3)c(=O)oc2cc1O,14.7 µM
2,CC1=NN(c2ccc(C(F)(F)F)cn2)C(=O)C1,8.21 µM
3,CN(C)c1cc(N/N=C/c2ccccc2C(F)(F)F)nc(N(C)C)n1,6.79 µM
4,O=C1C(O)=C(O)C(=O)c2ccccc21,10.2 µM
5,CCN(CC)CCOC(=O)c1ccc(N/C=C(/C#N)c2nc(-c3cc4ccccc4oc3=O)cs2)cc1,> 100 µM (inactive)
6,CC1=NN(c2ccc(Cl)cc2)C(=O)C1C(c1ccccc1O)c1c(C)[nH]n(-c2ccc(Cl)cc2)c1=O (stereo not drawn),46.1 µM
7,Oc1ccc(/C=N/Nc2cc(N3CCCC3)nc(N3CCCC3)n2)cc1,5.44 µM
8,Cc1[nH]n(-c2ccccc2)c(=O)c1/C=N/Nc1nncc(-c2ccccc2)n1,2.23 µM
9,O=C1C(Cl)=C(NCCN2CCOCC2)C(=O)c2ccccc21,23.3 µM
10,CC(=O)N(Cc1ccc(F)cc1)C1=C(NCCc2ccccc2)C(=O)c2ccccc2C1=O,8.49 µM
11,COc1ccc(/C=N/Nc2cc(N(C)C)nc(N(C)C)n2)cc1,1.16 µM
12,COc1ccc(NC2=C(NCCO)C(=O)c3ccccc3C2=O)cc1,10.6 µM
13,CCCc1[nH]nc2c1C(c1ccc(OC)c(CSC3=NCCS3)c1)C(C#N)=C(N)O2 (stereo not drawn),14.3 µM
14,CCCCCCc1cc2cc(-c3nnc(-c4ccccc4)o3)c(=O)oc2cc1O,6.31 µM
15,O=C1C(C2=C(O)c3ccccc3C2=O)=Nc2ccccc21,5.3 µM
16,CCN(CC)CCCNC1=C(Cl)C(=O)c2ccccc2C1=O,16.1 µM
17,CCOC(=O)C1=C(c2ccccc2)NC(N)=NC1c1ccc(OCc2ccc(Cl)cc2)c(OC)c1 (stereo not drawn),15.8 µM
18,CCOC(=O)C1=C(c2ccccc2)NC(N)=NC1c1ccc(OCc2ccc(C(=O)OC)cc2)cc1 (stereo not drawn),16 µM
19,COc1ccc(/C=N/Nc2cc(N3CCCC3)nc(N3CCCC3)n2)cc1,3.91 µM

row,SMILES,IC50
1,O=C1C(Cl)=C(NCCN2CCCCC2)C(=O)c2ccccc21,6.08 µM
2,Oc1ccc(/C=N\Nc2cc(N3CCOCC3)nc(N3CCOCC3)n2)c(O)c1,57.9 µM
3,CN(C)c1cc(N/N=C\c2ccccc2)nc(N(C)C)n1,3.53 µM
4,CCN(CC)CCOC(=O)c1ccc(N/C=C(/C#N)c2nc(-c3ccc(OC)c(OC)c3)cs2)cc1,> 100 µM (inactive)
5,CSc1ccc(C=NNc2ccc(S(=O)(=O)Nc3ccccc3C(=O)O)cc2[N+](=O)[O-])cc1,8.5 µM
6,CC1(C)C=C2C(=NN(c3ccccc3)C(N)=C2C#N)CO1,4.31 µM
7,CC(C)c1ccc(/C=N/Nc2cc(N3CCOCC3)nc(N3CCOCC3)n2)cc1,> 100 µM (inactive)
8,Cc1ccc(NC2=C(NCCO)C(=O)c3ccccc3C2=O)cc1,6.91 µM
9,CCN(CC)CCOC(=O)c1ccc(N/C=C(/C#N)c2nc(-c3ccc4c(c3)OCO4)cs2)cc1,> 100 µM (inactive)
10,O=C(N/N=C/c1cc(Cl)cc([N+](=O)[O-])c1O)NC12CC3CC(CC(C3)C1)C2,9.15 µM
11,O=c1cc(N/N=C/c2ccccc2)[nH]c(=O)[nH]1,19.4 µM
12,Oc1cccc(/C=N/Nc2cc(N3CCCC3)nc(N3CCCC3)n2)c1,12.5 µM
13,Oc1ccc(/C=N/Nc2cc(N3CCCC3)nc(N3CCCC3)n2)cc1O,10.7 µM
14,O=[N+]([O-])c1ccc(N/N=C/c2ccc(O)c(O)c2O)c(S(=O)(=O)N2CCOCC2)c1,20.4 µM
15,O/C=c1\ccc2cccc3nc(C(F)(F)F)nc1c23,11.8 µM
16,CCC(=O)N(C1=C(NC)C(=O)c2ccccc2C1=O)C(C)C,24.6 µM
17,Oc1ccccc1/C=N/Nc1cc(N2CCCC2)nc(N2CCCC2)n1,2.51 µM
18,O=C1C(Cl)=C(NCc2cccnc2)C(=O)c2ccccc21,8.43 µM
19,CC(C)CCC(C)N=Cc1c(O)n(Cc2ccccc2)c(=O)c2ccccc12 (stereo not drawn),4.43 µM
